US20220040122A1, “COMPOSITION FOR ALLERGY PREVENTION, ATOPIC DERMATITIS ALLEVIATION OR SKIN REGENERATION, CONTAINING, AS ACTIVE INGREDIENT, UNDECANE OR UNDECANAL” (BOTANICSENS, priority 2019, published 2022)
Entries after “also recorded” stand apart in the source; their conditions may differ.

Legend:
[1] = system: Keratinocytes (human keratinocyte cell line, HaCaT); experiment: Inflammatory cytokine expression (real-time PCR) in TNF-α/IFN-γ-stimulated keratinocytes; type: cell-based; conditions: 24 h, vs immune-response-induced control
Experimental: (§1) Keratinocytes (human keratinocyte cell line, HaCaT) were purchased from ATCC (Manassas, Va., USA) and used. For cell culture, the culture medium of DMEM containing 10% fetal bovine serum (FBS) and antibiotics was used. The culture vessel used a 75T-flask and a 6-well plate, and cultured in a 37° C. incubator supplied with 5% CO2. The culture medium was changed every 3 to 4 days, and subculture was performed when the cells were excessively proliferated. The dispensed HaCaT cells (5×10^5/well) were cultured for 24 hours and then washed with PBS. In order to induce an immune response to keratinocytes, TNF-α (tumor necrosis factor-α) (10 ng/ml) and IFN-γ (interferon gamma) (10 ng/ml) were treated together in DMEM medium without FBS and incubated for 24 hours. At this time, in order to evaluate the efficacy of alleviating the immune response of undecane, 100 μM of undecane was simultaneously treated, and in the case of normal cells, DMSO instead of undecane, and in the case of positive control cells, 10 μM of tacrolimus instead of undecane were treated simultaneously with the immune response inducer and incubated for 24 hours.
(§2) After removing the supernatant of the mast cells that induced the immune response, 1 ml of trizol was added, left for 2 minutes, and chloroform was added, vortexed for 10 seconds, centrifuged at 5,000 rpm for 10 minutes, and the upper layer was taken, and mixed with the same amount of isopropanol and shaken. The supernatant was removed by centrifugation at 13,000 rpm for 25 minutes, and the pellet was dissolved in 20 μl of diethyl pyrocarbonate (DEPC)-DW and stored at −20° C. and then used in the experiment. RT-PCR was performed using a one-step RT-PCR PreMixkit (iNtRON Biotechnology, Korea) at 45° C. for 30 minutes and at 94° C. for 5 minutes, followed by denaturation at 94° C. for 30 seconds, and then after annealing at 55° C. for 30 seconds, the cycle of extension at 72° C. for 1 minute was repeated 32 times, and the last extension was performed at 72° C. for 5 minutes, and PiQ SYBR green supermix (Bio-Rad) and CFX Connect™ Real-Time PCR Detection System (Bio-Rad) was used to perform quantitative PCR, and the primer sequences used are as shown in Table 1.
as §1, with “undecanal,” for “undecane,”, “undecanal” for “undecane”
RNA isolation and real-time PCR (quantitative reverse-transcription polymerase chain reaction) using a Trizol method was performed by the same method as 3) RNA isolation using the Trizol method and real-time PCR of 1-1. of Example 1 described above.

[2] = system: Mast cells (rat basophilic leukemia cell line, RBL-2H3); experiment: Inflammatory cytokine expression (real-time PCR) in anti-DNP-IgE/DNP-HSA-stimulated mast cells; type: cell-based; conditions: 1 h before DNP-HSA induction, vs immune-response-induced control
Experimental: Then, it was sensitized with anti-DNP (dinitrophenyl)-IgE (30 ng/ml) and cultured for 24 hours at 37° C., 5% CO2 in an incubator. After washing twice with PBS (phosphate buffered saline), DNP-HSA (dinitrophenylated human serum albumin; 10 μg/ml) was treated for 4 hours to induce an immune response. In addition, in order to evaluate atopy alleviating effect by undecane, mast cells treated with anti-DNP (dinitrophenyl)-IgE and cultured for 24 hours were treated with 100 μM of undecane, cultured for 1 hour, and then an immune response was induced with DNP-HSA. Normal cells were treated with DMSO instead of undecane under the same conditions as undecane-treated cells, and positive control cells were treated with 10 μM of tacrolimus instead of undecane and cultured for 1 hour, and then, an immune response was induced with DNP-HSA.
as §2, with “1. […]” for “1.”
Then, it was sensitized with anti-DNP (dinitrophenyl)-IgE (30 ng/ml) and cultured for 24 hours at 37° C., 5% CO2 in an incubator. After washing twice with PBS (phosphate buffered saline), DNP-HSA (dinitrophenylated human serum albumin; 10 μg/ml) was treated for 4 hours to induce an immune response. In addition, in order to evaluate an effect of alleviating atopy by undecanal, mast cells treated with anti-DNP (dinitrophenyl)-IgE and cultured for 24 hours were treated with 100 μM of undecanal, cultured for 1 hour, and then an immune response was induced with DNP-HSA. Normal cells were treated with DMSO instead of undecanal under the same conditions as undecanal-treated cells, and positive control cells were treated with 10 μM of tacrolimus instead of undecanal and cultured for 1 hour, and then, an immune response was induced with DNP-HSA. […]

rats [3] = conditions: chronic oral administration; cited from earlier work
rats [4] = conditions: rat, in vivo, po; cited from earlier work
rats [5] = conditions: cited from earlier work
[6] = positive control 10 μM together with TNF-α and IFN-γ
[7] = 100 μM test compound together with TNF-α and IFN-γ

Row | Structure (SMILES) | expression of IL-1β [1, 6] | expression of IL-6 [1, 6] | expression of IL-8 [1, 6] | expression of IL-4 ([2]; positive control 10 μM) | expression of IL-13 ([2]; positive control 10 μM) | expression of TNF-α ([2]; positive control 10 μM) | no-observed-adverse-effect level (NOAEL) (rats [3]) | expression of IL-1β [1, 7] | expression of IL-6 [1, 7] | expression of IL-8 [1, 7] | LD50 (lethal dose, 50%) (rats [4]) | expression of IL-4 ([2]; 100 μM test compound) | expression of IL-13 ([2]; 100 μM test compound) | expression of TNF-α ([2]; 100 μM test compound) | LD50 (lethal dose, 50%) for inhalation toxicity (rats [5])
1 | C=CC[C@@H]1/C=C(\C)C[C@H](C)C[C@H](OC)[C@H]2O[C@@](O)(C(=O)C(=O)N3CCCC[C@H]3C(=O)O[C@H](/C(C)=C/[C@@H]3CC[C@@H](O)[C@H](OC)C3)[C@H](C)[C@@H](O)CC1=O)[C@H](C)C[C@@H]2OC [tacrolimus, reference compound] | significantly reduced | significantly reduced | significantly reduced | significantly reduced | significantly reduced | significantly reduced | – | – | – | – | – | – | – | – | –
2 | CCCCCCCCCCC=O [undecanal] | – | – | – | – | – | – | about 1000 mg/kg bw | significantly reduced; also recorded: remarkably reduced | significantly reduced; also recorded: remarkably reduced | significantly reduced; also recorded: remarkably reduced | > 5,000 mg/kg bw/day | significantly reduced; also recorded: remarkably reduced | significantly reduced; also recorded: remarkably reduced | significantly reduced; also recorded: remarkably reduced | –
3 | CCCCCCCCCCC [undecane] | – | – | – | – | – | – | – | significantly reduced; also recorded: remarkably reduced | significantly reduced; also recorded: remarkably reduced | significantly reduced; also recorded: remarkably reduced | – | significantly reduced; also recorded: remarkably reduced | significantly reduced; also recorded: remarkably reduced | significantly reduced; also recorded: remarkably reduced | about 442 ppm/8H
